Measured values reported in the supplement of paper PMC10307832.

Tests used:
Test in all cases: relative viability (nuclei count vs DMSO), 5 days (fraction); higher = more cells survive
[1] = compound: CN1CCC(CC1)OC2=CC(=C(C=C2)NC3=NC=C4C(=N3)N(C(=O)N4C)C5CCCC5)OC [AZ3146] + CC(C)C[C@H](NC(=O)[C@H](Cc1ccccc1)NC(=O)c1cnccn1)B(O)O [Bortezomib] (partner 0.002 µM)
How it was run: (§1)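 Lung cancer cell lines were seeded in 1536-well plates and dosed by pin tool the next day, with either a single drug or a fixed anchor-drug dose combined with five library-drug doses (not always all listed) spaced in √10 steps. Five days later, one step fixed the cells and stained their nuclei (final 0.05% Triton X-100, 1% formaldehyde, 1 ug/ml Hoechst), and nuclei were counted on 4× images. Relative viability is the nuclei count in treated wells divided by the count in vehicle wells, and each value is the median of duplicate plates.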

[2] = compound: CCOC(=O)CCNc1cc(N2CCc3ccccc3CC2)nc(-c2ccccn2)n1 [GSK-J4] + Cc1nc(NC(=O)N2CCC[C@H]2C(N)=O)sc1-c1ccnc(C(C)(C)C(F)(F)F)c1 [Alpelisib] (partner 2 µM)
How it was run: as §1

[3] = compound: CCOC(=O)CCNc1cc(N2CCc3ccccc3CC2)nc(-c2ccccn2)n1 [GSK-J4]
How it was run: (§2)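 Only plates meeting two conditions passed: control CV below 25% and at least one doubling. Lung cancer cell lines, kept overnight at 37 °C in 1536-well plates, were pinned with five library-drug doses (not always all listed) √10 apart on vehicle-anchored plates and grown 5 days without medium change. A one-step fix, permeabilisation and Hoechst stain preceded 4× imaging and MetaXpress nuclear counting. Viability equals treated-well nuclei divided by vehicle-well nuclei, as the median over plates.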

[4] = compound: CN1CCC(CC1)OC2=CC(=C(C=C2)NC3=NC=C4C(=N3)N(C(=O)N4C)C5CCCC5)OC [AZ3146]
How it was run: as §2

Row | Cell Line | relative viability ([1]; first compound 0.08 µM) | relative viability ([1]; first compound 0.253 µM) | relative viability ([1]; first compound 0.8 µM) | relative viability ([1]; first compound 2.53 µM) | relative viability ([1]; first compound 8 µM) | relative viability ([2]; first compound 0.5 µM) | relative viability ([2]; first compound 1.581 µM) | relative viability ([2]; first compound 5 µM) | relative viability ([2]; first compound 15.81 µM) | relative viability ([2]; first compound 50 µM) | relative viability ([3]; 0.5 µM) | relative viability ([3]; 1.581 µM) | relative viability ([3]; 5 µM) | relative viability ([3]; 15.81 µM) | relative viability ([3]; 50 µM) | relative viability ([4]; 0.08 µM) | relative viability ([4]; 0.253 µM) | relative viability ([4]; 0.8 µM) | relative viability ([4]; 2.53 µM) | relative viability ([4]; 8 µM)
1 | NCI-H2009 | 0.824 | 1.08 | 1.05 | 1.04 | 0.636 | 1.1 | 1.16 | 1.08 | 1.1 | 0.966 | 0.951 | 0.89 | 0.733 | 0.966 | 0.545 | 0.928 | 0.997 | 1.03 | 1.02 | 0.713
2 | COR-L 105 | 0.677 | 0.896 | 0.78 | 0.554 | 0.294 | 1.11 | 0.99 | 1.07 | 0.912 | 1.16 | 0.925 | 0.864 | 0.795 | 0.949 | 0.861 | 0.82 | 0.874 | 0.939 | 0.825 | 0.504
3 | NCI-H1623 |  |  |  |  |  |  |  |  |  |  | 1.05 | 0.739 | 1.31 | 0.825 | 0.959 | 1.03 | 0.991 | 0.78 | 0.944 | 0.956
4 | HCC-827 | 0.933 | 1.07 | 1.11 | 1.09 | 1.09 | 0.981 | 1 | 1.02 | 0.915 | 0.939 | 1.01 | 0.902 | 0.839 | 1 | 1.02 | 1.04 | 0.998 | 0.987 | 0.939 | 1.04
5 | EMC-BAC-2 | 1.03 | 1.03 | 1.19 | 1.12 | 1.15 | 0.755 | 0.717 | 0.785 | 0.716 | 0.691 | 0.971 | 0.909 | 0.647 | 0.882 | 0.955 | 0.772 | 0.76 | 1.07 | 1.1 | 0.907
6 | NCI-H2170 |  |  |  |  |  | 0.787 | 0.803 | 0.878 | 0.781 | 0.713 | 1 | 0.89 | 0.893 | 0.916 | 0.969 | 0.959 | 0.991 | 0.994 | 1.01 | 0.96
7 | ChaGo-K-1 | 0.93 | 0.837 | 0.932 | 0.961 | 0.738 |  |  |  |  |  | 0.986 |  | 0.993 | 0.974 | 0.918 | 0.942 | 0.885 | 0.964 | 1.04 | 0.741
8 | SK-MES-1 |  |  |  |  |  | 0.783 | 0.968 | 0.842 | 0.805 | 0.819 | 0.965 | 0.937 | 0.932 | 0.928 | 0.783 | 1 | 0.985 | 1.07 | 0.991 | 0.95
9 | NCI-H1793 |  |  |  |  |  | 0.79 | 0.737 | 0.715 | 0.602 | 0.275 | 1.06 | 0.786 | 0.727 | 0.48 | 0.443 | 0.902 | 0.805 | 0.812 | 1.07 | 0.691
10 | NCI-H522 |  |  |  |  |  |  |  |  |  |  | 1.06 | 0.746 | 0.789 | 0.75 | 0.559 | 0.917 | 0.943 | 0.926 | 0.899 | 0.938
11 | NCI-H1648 |  |  |  |  |  |  |  |  |  |  | 0.992 |  | 1.47 | 0.496 | 0.807 |  | 0.654 | 0.924 | 0.921 | 1.03
12 | NCI-H1944 |  |  |  |  |  | 0.833 | 0.709 | 0.964 | 0.897 | 0.822 | 0.939 | 0.874 | 0.828 | 0.734 | 0.931 | 0.777 | 0.919 | 1.07 | 1.03 | 0.982
13 | NCI-H1650 | 0.204 | 0.226 | 0.205 | 0.168 | 0.2 |  |  |  |  |  | 1.11 | 0.791 | 0.889 | 0.808 | 0.682 | 0.966 | 0.873 | 0.812 | 0.864 | 0.652
14 | NCI-H2342 |  |  |  |  |  |  |  |  |  |  | 0.919 | 1.06 | 0.925 | 1.03 | 1.07 | 0.902 | 0.937 | 1.11 | 0.875 | 0.928
15 | SW 900 |  |  |  |  |  |  |  |  |  |  | 0.803 | 0.794 | 0.842 | 0.863 | 0.64 | 0.77 | 0.669 | 0.751 | 1.01 | 0.686
16 | LK-2 |  |  |  |  |  | 1.04 | 1.08 | 1.41 | 1.3 | 1.23 | 1.07 | 0.886 | 1.22 | 0.756 | 1 | 0.743 | 0.782 | 0.961 | 1.08 | 1.05
17 | NCI-H1395 |  |  |  |  |  | 1.03 | 0.88 | 0.845 | 1.14 | 0.821 | 1.05 | 0.893 | 0.827 | 0.964 | 0.81 | 0.958 | 0.879 | 0.86 | 0.985 | 0.85
18 | A549 |  |  |  |  |  | 0.765 | 0.578 | 0.669 | 0.823 | 0.691 | 0.981 | 0.731 | 0.862 | 0.838 | 0.924 | 0.852 | 0.988 | 1.03 | 0.952 | 0.462
19 | NCI-H358 |  |  |  |  |  | 0.868 | 0.639 | 0.98 | 0.876 | 0.773 | 0.981 | 0.843 | 0.977 | 0.819 | 0.807 | 0.977 | 0.923 | 0.873 | 1.1 | 0.785
